From patent US8168650B2, “Therapeutic uses of bicyclic ligands of sigma 2 receptor” (priority 2006, dated 2012)
Like-named read-outs stand apart in the source and are kept apart here.

Assays:
[1] = system: EMT-6 cells; experiment: TUNEL staining of DNA fragmentation in EMT-6 cells (microscopy, flow cytometry); assay type: cell-based, mouse; details: for TUNEL positive cells (flow cytometry): untreated control 2%; for DNA fragmentation, TUNEL staining in nuclei (fluorescence microscopy): EMT-6, WC-II-26 40 μM 48 h, SV119 100 μM 16 h, RHM-I-138 40 μM 16 h
Protocol: Detection of apoptosis by fluorescence microscopy. The DNA fragmentation occurring during apoptosis was detected by the TUNEL staining method using the in situ cell death detection kit purchased from Roche Applied Science (Indianapolis, Ind.). Briefly, after treatment of EMT-6 cells with the sigma ligands, cells were fixed for 1 hour with 4% paraformaldehyde in phosphate buffered saline at room temperature and permeabilized with 0.1% Triton X-100 for 2 minutes on ice. The cells were then labeled by incubation with the TUNEL reaction mixture for 1 hour at 37° C. and analyzed using a Nikon inverted fluorescence microscope with a FITC filter.
(§1) Detection and quantification of apoptosis by flow cytometry. The early stages of apoptosis are characterized by translocation of phosphatidyl serine (PS) from the inner surface of the plasma membrane to the outer surface of the membrane. Annexin V, a protein with high affinity for PS, was used to detect the externalization of PS. In these experiments cell death was quantified flow cytometrically using both an annexin V assay (Apoptosis Detection Kit, R &D Systems, Minneapolis, Minn.) and a TUNEL assay (Apodirect Kit, BD Biosciences Pharmingen, San Diego, Calif.). All of the data was collected and analyzed using a FACS scan flow cytometer (Becton Dickinson, Fullerton, Calif.).
To determine if the mechanism by which our σ2 selective ligands kill EMT-6 cells involves apoptosis, cells incubated with σ2 ligands were assayed by the TUNEL method. […] In these experiments, DNA fragmentation was detected by TUNEL staining and fluorescence microscopy (FIG. 6). Panel A: untreated cells. Panel B: Cells treated for 48 h with WC-II-26 (40 μM). Panel C: Cells treated for 16 h with SV119 (100 μM). Panel D: Cells treated for 16 h with RHM-I-138 (40 μM). […] At the designated times after treatment with WC-II-26, SV119 and RHM-I-138, TUNEL positive cells increased from 2% for the untreated control cells to 46%, 37% and 40%, respectively (FIG. 6B).

[2] = system: caspase-3/7; experiment: Caspase-3/7 whole cell assay in MDA-MB-435 cells; assay type: cell-based, human; details: MDA-MB-435, 24 h
Protocol: FIG. 8 illustrates activation of caspase-3/7 in EMT-6 cells treated with the sigma-2 selective ligands, WC-II-26, SV119, or RHM-I-138. EMT6 cells were treated for 24 h with concentrations of 40 μM. MDA-MB-435 cells were treated with varying concentrations of sigma-2 selective ligands for 24 h. The highest level of caspase-3/7 activity was detected after 24 h in the presence of 80 μM SV119, 80 μM WC-II-26, and 50 μM RHM-I-138. The data are the mean±1 SEM of three independent experiments. p<0.05; * compared to the control.
Detection of intracellular cellular caspase-3/7 activity. The activation of endogenous caspase-3/7 by the sigma ligands was measured using the CellProbe HT caspase-3/7 whole cell assay (Beckman Coulter, Fullerton, Calif.). The cell permeable, nonfluorescent bisamide substrate, Z-DEVD-R110, was added to the intact cells to detect apoptosis. Upon specific cleavage by caspase-3/7, Z-DEVD-R110 is converted to a fluorescent compound, and the fluorescent signal can be measured as follows. After adding the substrate, Z-DEVD-R110, to the cells treated with a sigma ligand, the plate was incubated for an additional 1.5-2 hour, and the resulting fluorescence measured using a Victor 3 microplate fluorometer at excitation and emission wavelengths of 485 nm and 535 nm, respectively.

[3] = system: EMT-6 cells; experiment: Annexin V labeling by flow cytometry in EMT-6 cells; assay type: cell-based, mouse
Description: as §1
An early step in the induction of apoptosis is the membrane inversion of phosphatidyl serine (PS), which can be detected by the binding of annexin V to the cell surface. In early apoptosis, the cell membrane integrity is still intact, and the fluorescent marker, 7AAD, is excluded from the cell. Therefore, early apoptotic cells are annexin V positive and 7AAD negative. As apoptosis progresses, the cell membrane integrity is lost, and the cells become annexin V positive and 7AAD positive. EMT-6 cells treated with WC-II-26, SV119, and RHM-1-138 were analyzed by flow cytometry, and both early apoptotic death and late apoptotic death were detected after treatment with these three σ2 selective ligands (FIG. 7A). The percentage of EMT-6 cells with positive annexin V staining was 96.6±2.7%, 73.5±2.4%, and 48±6.4% after treatment with WCII-26, SV119 and RHM-I-138, respectively (FIG. 7B).

[4] = system: MDA-MB-435 breast cancer cells; experiment: Cytotoxicity assay (MTS) in MDA-MB-435 cells; assay type: cell-based; details: Homo sapiens
Protocol: Cytotoxicity assay. The cytotoxic effect of the sigma ligands on EMT-6 cells was measured using the MTS colorimetric assay. MTS is bioreduced by cells into a colored formazan product with an absorbance at 490 nm. The quantity of the products is directly proportional to the number of viable cells in the culture. The MTS assay was performed using the CellTiter96Aqueous One Solution Assay (Promega, Madison, Wis.) according to the manufacturer's protocol. Briefly, EMT-6 cells were seeded at 2×10^3/well in 96-well plates on the day prior to treatment with the sigma ligand. Each sigma ligand was first dissolved in DMSO, and then serially diluted to get the desired concentration. The final concentration of DMSO in the cell culture medium was no more than 0.5%. After a 24 hour or 48 hour treatment with the various sigma ligands, cell death was assessed as follows. The CellTiter 96 AQueous One Solution Reagent was added to each well, and the plate was incubated for 2 hours at 37° C. The plate was then read at 490 nm in a Victor 3 plate reader (PerkinElmer Life and Analytical Sciences, Shelton, Conn.).
In these experiments, sigma ligands WC-II-26, SV119 and RHM-I-138 were evaluated for their efficacy to kill human MDA-MB-435 breast cancer cells. Cells were treated and analyzed as described for EMT-6 cells in Example 33. In these experiments cells were incubated for 24 hours or 48 hours with various concentrations of the sigma ligands.

[5] = biological target: σ1 receptor (Cavia porcellus, UniProt Q60492); experiment: σ1 receptor binding assay, [3H](+)-pentazocine; details: as listed in Table 2
σ1 receptor, sequence (Q60492 whole entry): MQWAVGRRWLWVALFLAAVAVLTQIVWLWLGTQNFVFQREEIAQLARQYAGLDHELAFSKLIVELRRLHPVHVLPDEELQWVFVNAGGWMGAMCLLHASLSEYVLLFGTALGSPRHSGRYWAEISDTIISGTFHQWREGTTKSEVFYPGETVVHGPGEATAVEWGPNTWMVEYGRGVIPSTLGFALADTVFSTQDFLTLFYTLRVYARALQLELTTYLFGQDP
Protocol: (§2) In vitro binding studies were conducted in order to determine the affinity of the target compounds at σ1 and σ2 receptors.
(§3) In this example, test compounds were dissolved in N,N-dimethylformamide (DMF), dimethylsulfoxide (DMSO) or ethanol and then diluted in 50 mM Tris-HCl, pH 7.4 buffer containing 150 mM NaCl and 100 mM EDTA. Membrane homogenates were made from guinea pig brain for σ1 binding assays and rat liver for σ2 binding assays. Membrane homogenates were diluted with 50 mM Tris-HCl buffer, pH 8.0, and incubated at 25° C. in a total volume of 150 μL in 96-well plates with the radioligand and test compounds with concentrations ranging from 0.1 nM to 10 μM. After incubation was completed, the reactions were terminated by the addition of 150 μL of ice-cold wash buffer (10 mM Tris-HCl, 150 mM NaCl, pH 7.4) using a 96-channel transfer pipette (Fisher Scientific, Pittsburgh, Pa.), and the samples harvested and filtered rapidly through 96-well fiberglass filter plate (Millipore, Billerica, Mass.) that had been presoaked with 100 μL of 50 mM Tris-HCl buffer, pH 8.0, for 1 h. Each filter was washed three times with 200 μL of ice cold wash buffer.
(§4) Ki values were calculated using the method of Cheng and Prusoff20 and represent mean values±SEM.

[6] = biological target: T1, σ2 receptor (Rattus norvegicus, UniProt Q5U3Y7); experiment: σ2 receptor binding assay, [3H]DTG or [3H]RHM-1; details: for σ1/σ2 Ratio: Ki for σ1/Ki for σ2
T1 construct: from tissue; host or cells: rat liver membrane homogenates
T1 sequence (Q5U3Y7 1-176): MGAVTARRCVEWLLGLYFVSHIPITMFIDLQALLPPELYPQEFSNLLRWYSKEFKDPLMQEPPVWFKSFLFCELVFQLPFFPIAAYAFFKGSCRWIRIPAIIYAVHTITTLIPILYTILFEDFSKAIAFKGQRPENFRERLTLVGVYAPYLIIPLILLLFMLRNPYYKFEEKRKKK
Protocol: as §2, §3, §4

[7] = read-out: IC50 (μM), MDA-MB-435, 24 hours
[8] = MDA-MB-435, 48 hours, read-out: IC50 (μM, 48 hours)
[9] = Ki for σ2 (nM), as listed in Table 2
[10] = Ki σ2, inhibiting binding of [3H]DTG or [3H]RHM-1 to rat liver homogenates, mean ± SEM

| Structure (SMILES) | TUNEL positive cells (flow cytometry) ([1]; EMT-6, 40 μM, 16 h) [%] | DNA fragmentation, TUNEL staining in nuclei (fluorescence microscopy) [1] | concentration at which the highest level of caspase-3/7 activity was detected [2] [µM] | percentage of EMT-6 cells with positive annexin V staining ([3]; 40 μM, 16 h) [%] | IC50 [4, 7] [µM] | IC50 [4, 8] [µM] | Ki ([5]; read-out: Ki for σ1) [nM] | σ1/σ2 Ratio [6] | Ki [6, 9] [nM] | Ki [6, 10] [nM] | TUNEL positive cells (flow cytometry) ([1]; EMT-6, 100 μM, 16 h) [%] | percentage of EMT-6 cells with positive annexin V staining ([3]; 100 μM, 16 h) [%] | Ki ([5]; Ki for σ1 (nM)) [nM] | TUNEL positive cells (flow cytometry) ([1]; EMT-6, 40 μM, 48 h) [%] | percentage of EMT-6 cells with positive annexin V staining ([3]; 40 μM, 48 h) [%] |
| --- | --- | --- | --- | --- | --- | --- | --- | --- | --- | --- | --- | --- | --- | --- | --- |
| O[C@@H](CN1C2CCC1CC(c1ccccc1)C2)c1cccc(Br)c1 (stereo partly shown) [RHM-I-138] | 40 | positive TUNEL staining | 50 | 48±6.4 | 26.7 ± 4.3 | 19 ± 1.8 | 544 | 44 | 12.3 | 12.3 |  |  |  |  |  |
| COc1ccc(C)cc1NC(=O)OC1CC2CCCC(C1)N2CCCCCCN (stereo not shown) [SV119] |  | positive TUNEL staining | 80 |  | 36.7 ± 3.3 | 20.6 ± 2.7 |  |  | 19.9 |  | 37 | 73.5±2.4 | 1450 |  |  |
| COc1ccc(C)cc1NC(=O)O[C@H]1C[C@H]2CCC[C@@H](C1)N2Cc1ccc(N(C)C)cc1 [WC-II-26] |  | positive TUNEL staining | 80 |  | 51.6 ± 6 | 43.2 ± 2 |  | 511 | 10.8 | 10.9 |  |  | 5570 | 46 | 96.6±2.7 |
